Measurements: publication PMC7949159, “Optimized binding of substituted quinoline ALLINIs within the HIV-1 integrase oligomer” (The Journal of Biological Chemistry, 2021)
Like-named read-outs stand apart in the source and are kept apart here.

Columns and labels:
[1] = system: HIV-1 virions (viral core density); test: Sucrose density gradient fractionation of detergent-lysed virions (p24 distribution); format: cell-based; details: 1 μM during viral production, versus DMSO; fractions 16–22
Text: We and others have previously observed how ALLINIs interfere with proper virus particle maturation and yield noninfectious particles with eccentrically positioned RNPs. This mislocalization of the RNP to a position located between the low density empty capsid (CA) core and the particle membrane in mature virions has been observed using electron microscopy ([17], [31], [32]). The buoyant sucrose gradient technique that measure the relative density of the viral core of mature virions has also been validated as an effective approach to characterize this mislocalization of the RNP ([17], [33], [34]). […] The CA core density was then detected by measuring the HIV-1 CA (p24) content of each sucrose fraction.
For sucrose density gradient fractionation ([17], [33], [34]), cell-free virions produced from HEK293T cells transfected with pNL4-3 in the absence or presence of indicated concentration of ALLINI were concentrated by ultracentrifugation over a 25% sucrose cushion, pelleted virions were lysed with 0.5% Triton X-100 and were ultracentrifuged through a 20% to 70% (wt/vol) linear sucrose density gradient at 28,500 rpm for 16 h at 4C in SW40 rotor (Beckman). […] The relative distribution of HIV-1 capsid was determined by quantifying the Western blot p24 signal. […]

[2] = biological target: T1, HIV-1 IN-CTD / full-length IN complex (Human immunodeficiency virus type 1 group M subtype B, UniProt P12497); test: HTRF-based CTD binding assay (His-tagged CTD-IN with FLAG-tagged full-length IN); format: biochemical; details: 200 nM of ALLINI
T1 construct: His-tagged CTD-IN and FLAG-tagged full-length IN proteins were mixed; made in house; host or cells: E. coli (stated for the full-length INs)
Text: To detect in isolation the specific contribution of the IN-CTD to the ALLINI-induced IN multimer complex formation, we have modified our published HTRF-based assay (Fig. 3, A and B). In this new analytical assay, anti-His6-XL665 and anti-FLAG-EuCryptate antibodies allow the detection of fluorescence energy transfer only when FLAG-tagged full-length IN protein tightly interacts with a His-tagged IN-CTD construct. Mixing of the proteins and without compound addition generated a small HTRF signal (Fig. 3C, dimethyl sulfoxide [DMSO]) indicating a weak interaction between the full-length IN and the IN-CTD construct. Strikingly, the addition of ALLINI to the assay promoted a significant increase of HTRF signals proportional to the IN multimerization properties of the compound.
Figure 3 C-terminal domain (CTD) contribution to the ALLINI-induced IN multimer formation.A, schematic of the standard HTRF-based IN multimerization assay. […] C, HTRF signal intensities recorded after the addition of 200 nM of ALLINI to a mixture of Flag tagged full-length IN and His-tagged CTD domain proteins as described in the Methods section. ALLINI, allosteric IN inhibitors; HTRF, homogeneous time resolved fluorescence; IN, integrase.
The CTD-IN protein was generated and purified using a published method ([40]). […] The HTRF binding signal between proteins was recorded using a PerkinElmer EnSpire multimode plate reader.

[3] = biological target: T2, HIV-1 IN (full-length, His-tagged and FLAG-tagged) (Human immunodeficiency virus type 1 group M subtype B, UniProt P12497); test: HTRF-based IN multimerization assay; format: biochemical; details: average with SD of three independent experiments, read-out: In vitro IN multimerization EC50
T2 construct: recombinant proteins 6xHis-tagged and FLAG-tagged full-length INs were expressed in E. coli; made in house; host or cells: E. coli
Method: For biochemical studies, recombinant proteins 6xHis-tagged and FLAG-tagged full-length INs were expressed in E. coli and purified by column chromatography as previously described ([39]). The HTRF-based assay used to monitor inhibitor-induced aberrant multimerization of IN was performed as previously reported ([15], [19]). Briefly, two separate preparations of His-tagged and FLAG-tagged IN proteins were mixed in presence of increasing concentration of the test compounds and incubated for 2.5 h at room temperature. Anti-His6-XL665 and anti-FLAG-EuCryptate antibodies (Cisbio, Inc) were then added to the reaction and incubated at room temperature for 3 h.

noninfected cells = test: CyQUANT XTT Cell Viability cytotoxicity assay; format: cell-based
HIV-1 = system: HIV-1
Method: For early stage experiments, viral infectivity of target cells was measured in the presence of increasing concentrations of inhibitors. For late stage, producer cells were transfected in the presence of increasing concentrations of inhibitors, cell-free virions were harvested at 48 h, and the amounts of viral particles produced were measured by p24 concentration essay. Subsequently, the infectivity of these progeny virions was examined without any additional inhibitor being added to the target cells. […] For full viral cycle experiments, the same inhibitor concentrations were added in the producer cells and the target cells ([31]).
The EC50 values were determined in single replication cycle as described previously ([17]). […] The virus supernatants were collected 24 h after drug treatment, and p24 concentrations were determined by HIV-1 Gag p24 ELISA (ZeptoMetrix) following manufacturer’s protocol. The target cells were then infected with HIV-1 virions equivalent to 4 ng of HIV-1 p24, in the absence or presence of indicated concentrations of drugs. To measure EC50 values during the early replication stage, DMSO or the inhibitor was added to the target cells 60 min before infection. The cells were cultured for 48 h, and the cell extracts were prepared using reporter lysis buffer (Promega). Luciferase activity was determined using a commercially available kit (Promega). The cytotoxicity assays were performed on noninfected cells using the commercially available CyQUANT XTT Cell Viability Assay (Invitrogen, Inc) by following the manufacturer protocol. The dose–response curves were fitted with a sigmoidal dose–response equation with Hill slope to determine the compound IC50 and CC50 using Origin software (v9.7).

Structure (SMILES) | Effect on HIV-1 capsid (p24) distribution in sucrose density gradient fractions [1] | HTRF signal intensity, CTD / full-length IN complex [2] | EC50 [3] | CC50 (noninfected cells) | Fold improvement of overall antiviral IC50 (HIV-1) | Fold increase of PSI (HIV-1) | PSI (phase specificity index) (HIV-1) | IC50 (HIV-1; read-out: Early IC50) | IC50 (HIV-1; read-out: Full IC50) | IC50 (HIV-1; read-out: Late IC50)
COc1ccccc1-c1ccc2c(-c3ccc4c(c3)OCCO4)c(C(OC(C)(C)C)C(=O)O)c(C)nc2c1 (stereo not shown) [JDH-2110] | reduction of CA signal in high-density fractions | higher HTRF than NGJ9002 | 0.04 ± 0.01 µM | > 100 µM | about 30 fold | 7 fold | 465 | 9.3 ± 0.5 µM | 0.03 ± 0.01 µM | 0.02 ± 0.01 µM
Cc1nc2ccccc2c(-c2ccc3c(c2)OCCO3)c1C(OC(C)(C)C)C(=O)O (stereo not shown) [NGJ-9002] |  |  | 0.11 ± 0.01 µM | > 100 µM |  |  | 64 | 42 ± 3 µM | 0.83 ± 0.05 µM | 0.66 ± 0.03 µM
